Measured values reported in patent US20210347727A1 (BLADE THERAPEUTICS, INC., priority 2017, published 2021).

Columns and labels:
Human Calpain 1/NS1 = biological target: T1, Human Calpain 1/NS1 (Homo sapiens, UniProt P07384); experiment: Biochemical inhibition of calpain 1, continuous fluorescence (FRET substrate) assay; conditions: mean; read-out: Human Calpain 1/NS1 IC50 (nM)_MEAN
T1 sequence (P07384 1-714): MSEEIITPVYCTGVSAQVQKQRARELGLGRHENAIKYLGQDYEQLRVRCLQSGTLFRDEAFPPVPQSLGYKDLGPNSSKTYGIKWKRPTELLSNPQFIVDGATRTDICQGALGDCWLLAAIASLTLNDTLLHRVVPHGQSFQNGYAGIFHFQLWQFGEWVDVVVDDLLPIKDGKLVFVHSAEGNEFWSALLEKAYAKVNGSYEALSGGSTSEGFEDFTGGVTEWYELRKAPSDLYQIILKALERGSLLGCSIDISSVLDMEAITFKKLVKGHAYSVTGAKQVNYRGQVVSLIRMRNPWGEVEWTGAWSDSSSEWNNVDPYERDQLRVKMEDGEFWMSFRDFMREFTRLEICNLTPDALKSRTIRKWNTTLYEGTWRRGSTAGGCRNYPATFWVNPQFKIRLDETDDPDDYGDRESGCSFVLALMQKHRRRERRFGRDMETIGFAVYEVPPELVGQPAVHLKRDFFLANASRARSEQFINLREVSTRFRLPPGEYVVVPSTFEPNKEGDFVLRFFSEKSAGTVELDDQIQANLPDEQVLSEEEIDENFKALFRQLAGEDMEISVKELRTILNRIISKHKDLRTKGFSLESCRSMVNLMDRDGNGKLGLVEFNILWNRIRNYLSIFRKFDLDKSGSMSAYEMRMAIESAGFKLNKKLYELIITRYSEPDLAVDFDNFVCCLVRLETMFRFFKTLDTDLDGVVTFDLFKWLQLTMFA
T1 sequence (P04632 1-268 partner): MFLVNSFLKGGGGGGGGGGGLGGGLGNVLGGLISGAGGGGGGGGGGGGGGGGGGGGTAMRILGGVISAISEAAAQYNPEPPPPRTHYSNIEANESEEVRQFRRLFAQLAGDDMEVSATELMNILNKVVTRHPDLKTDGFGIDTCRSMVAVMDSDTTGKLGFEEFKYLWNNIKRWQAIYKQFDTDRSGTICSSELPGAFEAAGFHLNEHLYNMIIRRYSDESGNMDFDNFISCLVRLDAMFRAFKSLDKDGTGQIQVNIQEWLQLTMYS
Procedure: (§1) Calpain 1, 2, and 9 activity and inhibition thereof are assessed by means of a continuous fluorescence assay. The SensoLyte 520 Calpain substrate (Anaspec Inc) is optimized for detecting calpain activity. This substrate contains a novel internally quenched 5-FAM/QXL™ 520 FRET pair. Calpains 1, 2, and 9 cleave the FRET substrate into two separate fragments resulting in an increase of 5-FAM fluorescence that is proportional to calpain activity.
(§2) Assays are typically setup in black 384-well plates using automated liquid handling as follows. Calpain assay base buffer typically contains 50 mM Tris, pH 7.5, 100 mM NaCl and 1 mM DTT. Inhibitors are serially diluted in DMSO and used to setup 2× mixtures with calpains in the aforementioned buffer. After incubation at ambient temperature (25 C), the reaction is initiated by adding a 2× mix of the fluorescent peptide substrate and CaCl2 (required for in-situ calpain activation) in the same buffer. Reaction progress curve data are typically collected for 10 min using excitation/emission wavelengths of 490 nm/520 nm on SpectraMax i3x or the FLIPR-Tetra plate readers (Molecular Devices Inc). Reaction rates were calculated from progress curve slopes typically over 1-5 min. Dose response curves (rate vs. log inhibitor concentration) were typically fit to a 4-parameter logistic function to extract IC50 values.

Human Calpain 2/NS1 = biological target: T2, Human Calpain 2/NS1 (Homo sapiens, UniProt P17655); experiment: Biochemical inhibition of calpain 2, continuous fluorescence (FRET substrate) assay; conditions: mean; read-out: Human Calpain 2/NS1 1C50 [sic] (nM)_MEAN
T2 sequence (P17655 1-700): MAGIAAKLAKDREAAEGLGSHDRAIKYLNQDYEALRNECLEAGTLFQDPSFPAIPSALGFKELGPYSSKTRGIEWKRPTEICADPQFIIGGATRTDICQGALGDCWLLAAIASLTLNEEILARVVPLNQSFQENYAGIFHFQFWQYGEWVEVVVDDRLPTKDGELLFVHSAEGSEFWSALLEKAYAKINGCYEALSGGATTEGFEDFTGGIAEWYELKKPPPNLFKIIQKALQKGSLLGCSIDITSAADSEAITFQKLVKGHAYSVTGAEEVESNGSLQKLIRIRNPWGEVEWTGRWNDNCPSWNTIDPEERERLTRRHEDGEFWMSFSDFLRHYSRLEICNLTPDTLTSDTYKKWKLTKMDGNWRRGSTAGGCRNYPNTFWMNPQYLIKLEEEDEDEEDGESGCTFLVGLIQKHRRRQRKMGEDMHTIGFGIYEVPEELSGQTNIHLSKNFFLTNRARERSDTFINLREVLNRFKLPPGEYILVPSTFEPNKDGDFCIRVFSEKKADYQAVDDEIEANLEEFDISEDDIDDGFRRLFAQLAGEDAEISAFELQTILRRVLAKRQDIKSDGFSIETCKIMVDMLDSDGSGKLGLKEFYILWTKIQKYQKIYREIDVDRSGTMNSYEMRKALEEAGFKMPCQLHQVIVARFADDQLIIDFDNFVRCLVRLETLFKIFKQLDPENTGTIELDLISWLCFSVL
T2 sequence (P04632 1-268 partner): T1 sequence (P04632 1-268 partner)
Procedure: as §1, §2

Human Calpain 9/NS1 = biological target: T3, Human Calpain 9/NS1 (Homo sapiens, UniProt O14815); experiment: Biochemical inhibition of calpain 9, continuous fluorescence (FRET substrate) assay; conditions: mean; read-out: Human Calpain 9/NS1 IC50 (nM)_MEAN
T3 sequence (O14815 1-690): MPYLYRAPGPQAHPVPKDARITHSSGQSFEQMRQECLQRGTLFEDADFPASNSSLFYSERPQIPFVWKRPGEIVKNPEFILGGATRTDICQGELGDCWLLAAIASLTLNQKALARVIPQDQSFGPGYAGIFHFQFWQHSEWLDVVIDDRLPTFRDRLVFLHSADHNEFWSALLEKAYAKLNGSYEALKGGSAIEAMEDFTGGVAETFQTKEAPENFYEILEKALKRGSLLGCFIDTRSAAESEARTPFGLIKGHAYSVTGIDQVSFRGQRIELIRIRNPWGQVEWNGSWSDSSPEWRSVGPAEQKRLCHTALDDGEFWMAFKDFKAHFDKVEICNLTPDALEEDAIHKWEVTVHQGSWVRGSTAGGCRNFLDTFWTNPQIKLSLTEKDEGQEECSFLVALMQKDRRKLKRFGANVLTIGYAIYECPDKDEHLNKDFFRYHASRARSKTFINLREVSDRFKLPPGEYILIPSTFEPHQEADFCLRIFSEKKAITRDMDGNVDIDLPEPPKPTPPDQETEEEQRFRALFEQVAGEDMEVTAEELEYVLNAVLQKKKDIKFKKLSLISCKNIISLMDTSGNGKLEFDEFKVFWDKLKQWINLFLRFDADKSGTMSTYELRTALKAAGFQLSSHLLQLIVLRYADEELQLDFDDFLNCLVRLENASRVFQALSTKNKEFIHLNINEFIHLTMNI
T3 sequence (P04632 1-268 partner): T1 sequence (P04632 1-268 partner)
Procedure: as §1, §2

[1] = system: calpain activity in SH-SY5Y cells (Spectrin); experiment: SH-SY5Y Spectrin cellular calpain inhibition; format: cell-based
[2] = system: calpain activity in SH-SY5Y cells; experiment: SH-SY5Y cellular calpain activity, Suc-LLVY-AMC fluorescence assay; format: cell-based; conditions: Suc-LLVY-AMC substrate
Procedure: Calpain activity in SH-SY5Y cells and inhibition thereof were assessed by means of a homogeneous, fluorescence assay that uses the cell-permeable and pro-fluorescent calpain substrate Suc-LLVY-AMC (Sigma-Aldrich Inc). Upon intracellular calpain cleavage of Suc-LLVY-AMC, fluorescent amino-methyl-coumarin (AMC) is released into the media resulting in a continuous increase in fluorescence signal that is proportional to intra-cellular calpain activity.
Assays were typically setup by seeding SH-SY5Y cells in black 384-well plates at 40 k/per well in RPMI-1640 containing 1% serum followed by 37 C overnight incubation. Next morning, cells were pre-incubated for 30 min with serially diluted compounds followed by addition of 100 uM of Suc-LLVY-AMC substrate. The continuous increase in AMC fluorescence is monitored using a FLIPR, Tetra plate reader (Molecular Devices Inc) and slopes measured to report calpain activity. Dose response curves (slopes vs. log inhibitor concentration) were typically fit to a 4-parameter logistic function to extract IC50 values.

Structure (SMILES) | IC50 (Human Calpain 1/NS1) | IC50 (Human Calpain 2/NS1) | IC50 (Human Calpain 9/NS1) | IC50 [1] | IC50 [2]
COc1ccc(F)c(C(=O)N[C@@H](Cc2ccccc2)C(=O)C(N)=O)c1Cl [Compound 29, (S)—N-(4-AMINO-3,4-DIOXO-1-PHENYLBUTAN-2-YL)-2-CHLORO-6-FLUORO-3-METHOXYBENZAMIDE] | < 3000 nM | < 3000 nM | < 3000 nM | 10 to 25 µM | < 10 µM
Cc1ccc(F)c(C(=O)N[C@@H](Cc2ccccc2)C(=O)C(N)=O)c1Cl [Compound 30, (S)—N-(4-AMINO-3,4-DIOXO-1-PHENYLBUTAN-2-YL)-2-CHLORO-6-FLUORO-3-METHYLBENZAMIDE] | < 3000 nM | < 3000 nM | < 3000 nM | 10 to 25 µM | < 10 µM
Cc1ccc(Cl)c(C(=O)N[C@@H](Cc2ccccc2)C(=O)C(N)=O)c1F [Compound 31, (S)—N-(4-AMINO-3,4-DIOXO-1-PHENYLBUTAN-2-YL)-6-CHLORO-2-FLUORO-3-METHYLBENZAMIDE] | < 3000 nM | < 3000 nM | < 3000 nM | < 10 µM | < 10 µM
NC(=O)C(=O)[C@H](Cc1ccccc1)NC(=O)c1c(C(F)(F)F)ccc(Cl)c1F [Compound 32, (S)—N-(4-AMINO-3,4-DIOXO-1-PHENYLBUTAN-2-YL)-3-CHLORO-2-FLUORO-6-(TRIFLUOROMETHYL)BENZAMIDE] | < 3000 nM | < 3000 nM | < 3000 nM | < 10 µM | < 10 µM
NC(=O)C(=O)[C@H](Cc1ccccc1)NC(=O)c1cc(F)c(Cl)cc1Cl [Compound 33, (S)—N-(4-AMINO-3,4-DIOXO-1-PHENYLBUTAN-2-YL)-2,4-DICHLORO-5-FLUOROBENZAMIDE] | < 3000 nM | < 3000 nM | < 3000 nM | < 10 µM | < 10 µM
NC(=O)C(=O)[C@H](Cc1ccccc1)NC(=O)c1cc(Br)ccc1Cl [Compound 34, (S)—N-(4-AMINO-3,4-DIOXO-1-PHENYLBUTAN-2-YL)-5-BROMO-2-CHLOROBENZAMIDE] | < 3000 nM | < 3000 nM | < 3000 nM | < 10 µM | < 10 µM
COc1ccc(Br)cc1C(=O)N[C@@H](Cc1ccccc1)C(=O)C(N)=O [Compound 35, (S)—N-(4-AMINO-3,4-DIOXO-1-PHENYLBUTAN-2-YL)-5-BROMO-2-METHOXYBENZAMIDE] | < 3000 nM | < 3000 nM | < 3000 nM | 10 to 25 µM | < 10 µM
COc1ccc(Cl)cc1C(=O)NC(C=O)Cc1ccccc1 (stereo not shown) [Compound 37, 5-CHLORO-2-METHOXY-N-(1-OXO-3-PHENYLPROPAN-2-YL)BENZAMIDE] | 3000 to 10000 nM | < 3000 nM | > 10000 nM | > 25 µM | > 25 µM
O=CC(Cc1ccccc1)NC(=O)c1c(C(F)(F)F)ccc(Cl)c1F (stereo not shown) [Compound 38, 3-CHLORO-2-FLUORO-N-(1-OXO-3-PHENYLPROPAN-2-YL)-6-(TRIFLUOROMETHYL)BENZAMIDE] | < 3000 nM | < 3000 nM | < 3000 nM | < 10 µM | 10 to 25 µM
O=CC(Cc1ccccc1)NC(=O)c1c(F)cccc1C(F)(F)F (stereo not shown) [Compound 39, 2-FLUORO-N-(1-OXO-3-PHENYLPROPAN-2-YL)-6-(TRIFLUOROMETHYL)BENZAMIDE] | < 3000 nM | < 3000 nM | < 3000 nM | > 25 µM | 10 to 25 µM
O=CC(Cc1ccccc1)NC(=O)c1c(F)cccc1F (stereo not shown) [Compound 40, 2,6-DIFLUDRO-N-(1-OXO-3-PHENYLPROPAN-2-YL)BENZAMIDE] | < 3000 nM | < 3000 nM | < 3000 nM | 10 to 25 µM | > 25 µM
Cc1ccc(F)c(C(=O)NC(C=O)Cc2ccccc2)c1Cl (stereo not shown) [Compound 42, 2-CHLORO-6-FLUORO-3-METHYL-N-(1-OXO-3-PHENYLPROPAN-2-YL)BENZAMIDE] | < 3000 nM | < 3000 nM | < 3000 nM | 10 to 25 µM | < 10 µM
COc1ccc(F)c(C(=O)NC(C=O)Cc2ccccc2)c1Cl (stereo not shown) [Compound 43, 2-CHLORO-6-FLUORO-3-METHOXY-N-(1-OXO-3-PHENYLPROPAN-2-YL)BENZAMIDE] | < 3000 nM | < 3000 nM | < 3000 nM | 10 to 25 µM | < 10 µM
O=CC(Cc1ccccc1)NC(=O)c1c(Cl)ccc2ccccc12 (stereo not shown) [Compound 44, 2-CHLORO-N-(1-OXO-3-PHENYLPROPAN-2-YL)-1-NAPHTHAMIDE] | < 3000 nM | < 3000 nM | < 3000 nM | < 10 µM | < 10 µM
